The source of these data is PMC9686928, “10-mer and 9-mer WALK Peptides with Both Antibacterial and Anti-Inflammatory Activities” (Antibiotics, 2022).

The subject of one data set is human red blood cells. The note with it: for MHC, minimal hemolytic concentration: lowest concentration showing 5% or more hemolysis, human red blood cells 10% v/v in PBS, 1 h, 1–64 μg/mL, A550, relative to 0.2% Triton X-100, triplicate.
A further data set deals with RAW264.7 cells. The settings on record: at the concentrations tested, 16 h.
Data set [1] relates to two Gram-positive and two Gram-negative bacterial strains. Briefly: Antimicrobial assay, MICs over the four strains (geometric mean). In kind it is cell-based, B. subtilis, S. aureus, E. coli, S. dysentariae. The settings on record: for GM, geometric mean of MICs: geometric mean of the MICs against the four strains. The procedure: (§1) The antimicrobial activity of each peptide was assessed against four strains, including two Gram-positive (Bacillus subtilis ATCC 6633 and Staphylococcus aureus ATCC 6538p) and two Gram-negative bacteria (Escherichia coli ATCC 25922 and Shigella dysentariae ATCC 9752) cultured in Luria-Bertani broth media. Antibacterial susceptibility was determined as the MIC value, which was measured using the standard broth microdilution method as described previously. […] Two conventional antibiotics, ampicillin and kanamycin, were used as controls to confirm antibiotic susceptibility. The tests were performed in triplicate, and the MIC values that were reproduced twice or thrice in the three independent measurements were employed to calculate the GM value.

For data set [2], the system named is Escherichia coli ATCC 25922. Nature of the data set: microbe, parasite or virus in culture. In kind it is cell-based. The settings on record: Gram-negative; broth microdilution, Luria-Bertani broth, 1–64 μg/mL two-fold serial dilutions; triplicate. As for the experimental part: as §1
On the technique in general: Dilution methods test growth across graded concentrations, often in twofold steps.

Data set [3] concerns Shigella dysentariae ATCC 9752. Briefly: microbe, parasite or virus in culture. In kind it is cell-based. The note with it: Gram-negative; broth microdilution, Luria-Bertani broth, 1–64 μg/mL two-fold serial dilutions; triplicate. As for the experimental part:
as §1

Data set [4] deals with Staphylococcus aureus ATCC 6538p. Briefly: microbe, parasite or virus in culture. In kind it is cell-based. The note with it: Gram-positive; broth microdilution, Luria-Bertani broth, 1–64 μg/mL two-fold serial dilutions; triplicate. As for the experimental part: as §1
The subject of data set [5] is Bacillus subtilis ATCC 6633. Briefly: microbe, parasite or virus in culture. In kind it is cell-based. The note with it: Gram-positive; broth microdilution, Luria-Bertani broth, 1–64 μg/mL two-fold serial dilutions; lowest concentration that completely inhibited growth; triplicate. As for the experimental part:
as §1

Data set [6] has as its system LPS-stimulated RAW264.7 cells. Nature of the data set: Nitric oxide (NO) production, Griess reaction assay. Type of data set: cell-based, murine. The settings on record: LPS 100 ng/mL 16 h, compared with omiganan and WALK155.03 (8 μM). As for the experimental part: (§2) The macrophage cells were seeded (3 × 10^4 cells/well) and incubated in 96-well plates for 24 h, followed by pretreatments with the WALK peptides at designated concentrations for 5 min and subsequent stimulation with 100 ng/mL of LPS for 16 h. The nitrite concentration in the culture medium was determined using the Griess reaction assay. Briefly, the culture supernatant (100 μL) was mixed with an equal volume of Griess reagent (1% sulfanilamide, 0.1% N-1-naphthyl ethylenediamine) and incubated for 5 min. The absorbance of the resulting chromophoric azo-derivative molecules was measured at 550 nm using a microplate reader with a fresh culture medium as a blank. The amount of nitrite in each sample was determined using a standard curve generated using a range of dilutions of sodium nitrite solutions.
In general terms: Nitrite, measured by Griess reagent, commonly stands in for NO production.

The test system of data set [7] is iNOS, COX-2 and pro-IL-1β in LPS-stimulated RAW264.7 cells. Nature of the data set: Immunoblot analysis of pro-inflammatory mediators. In kind it is cell-based, murine. The settings on record: peptide pretreatment 5 min, LPS 100 ng/mL 16 h, Western blot. As for the experimental part:
(§3) Figure 5 Anti-inflammatory effects of WALK244.04 peptide in Raw264.7 cells. The cells were pretreated with the peptide at indicated concentrations for 5 min, followed by stimulation with LPS (100 ng/mL) to induce inflammatory responses. (A) iNOS, COX-2, and pro-IL-1β expression levels were estimated by Western blot analysis after 16 h of LPS treatment. (B) The mRNA expression of IL-1β, IL-6, and TNF-α was determined by quantitative real-time PCR upon 3 h of stimulation with LPS. […] (C) The phosphorylation of STAT1 and TBK1 was examined by Western blot analysis at different time points after the LPS treatment.
as §3, with “Figure 6” for “Figure 5”, “of WALK243.04” for “of WALK244.04”, “PCR after” for “PCR upon”, “was analyzed” for “was examined”, “after” for “after the”
The cells were lysed using a RIPA buffer (iNtRON) containing protease and phosphatase inhibitor cocktails. The cell lysates were resolved using 10% SDS-PAGE and transferred to nitrocellulose membranes, which were blocked for 1 h at room temperature (approximately 23 °C) using phosphate-buffered saline with 0.01% Tween-20 (PBST, Merck Korea, Seoul, Korea) containing 10% fat-free dried milk. The blocked membranes were then incubated overnight with primary antibodies at 4 °C, followed by further incubation with horseradish peroxidase-conjugated secondary antibodies for 1 h at room temperature. The membranes were developed using the enhanced chemiluminescence (ECL) detection kit (Advansta, San Jose, CA, USA) and visualized using a luminescent image analyzer (Amersham imager 680, Cytiva Korea, Incheon, Korea).
A general note: Immunoblotting shows a protein as a band on a membrane.

Data set [8] deals with LPS-stimulated J774A.1 cells. Nature of the data set: Nitric oxide (NO) production, Griess reaction assay. In kind it is cell-based, murine. The note with it: LPS 100 ng/mL 16 h. The procedure: NT, non-treated; LPS, lipopolysaccharides. (A) Cytotoxicity was assessed using the MTT assay. […] (B) Anti-inflammatory potential deduced by NO assay.
as §2

In data set [9] the test system is phosphorylation of STAT1 and TBK1 in LPS-stimulated RAW264.7 cells. Nature of the data set: Immunoblot analysis of TRIF-dependent signaling. In kind it is cell-based, murine. The note with it: Western blot. As for the experimental part:
as §3
TRIF-dependent signaling, which is triggered by association with internalized TLR4 upon stimulation by LPS, is known to be mediated by the phosphorylation of the downstream kinase TANK binding kinase-1 (TBK-1) to produce type-I interferons. These interferons induce the expression of downstream target genes via the phosphorylation of the transcription factor signal transducer and the activator of transcription-1 (STAT-1).
The cells were lysed using a RIPA buffer (iNtRON) containing protease and phosphatase inhibitor cocktails. […]

The next data set deals with J774A.1 cells. The note with it: peptides 8, 4 and 2 μM, 16 h.
In data set [10] the test system is IL-1β, IL-6 and TNF-α mRNA in LPS-stimulated RAW264.7 cells. Nature of the data set: Quantitative real-time PCR of pro-inflammatory cytokines. Type of data set: cell-based, murine. The note with it: LPS 100 ng/mL 3 h, real-time qPCR. As for the experimental part:
as §3
Figure 6 Anti-inflammatory effects of WALK243.04 peptide in Raw264.7 cells. […] (B) The mRNA expression of IL-1β, IL-6, and TNF-α was determined by quantitative real-time PCR after 3 h of stimulation with LPS. […] (C) The phosphorylation of STAT1 and TBK1 was analyzed by Western blot analysis at different time points after LPS treatment.
The cells were stimulated with LPS (100 ng/mL) for 3 h in the presence or absence of peptide samples, and the total RNA was extracted using a HiGene™ Total RNA Prep Kit (BIOFACT, Daejeon, Korea). cDNA was synthesized from 500 ng of total RNA using a SuperiorScript III cDNA synthesis kit (Enzynomics, Daejeon, Korea). […] The resulting 2^−ΔΔCt value for each group was used to calculate the relative expression ratio of the detected mRNA.

Where no end group is shown, it is not given here.

Procedure for human red blood cells: Briefly, suspensions of human red blood cells (10% v/v in PBS) were treated for 1 h with various concentrations (1–64 μg/mL, two-fold serial dilutions) of peptides, followed by measurement of the absorbance of the supernatant at 550 nm. The relative attenuation was determined as the percentage of hemolysis compared to that of the blood suspension treated with 0.2% Triton X-100. The tests were performed in triplicate, and the average values of three independent measurements were recorded.

Take LKWLKWLLK-NH2 [WALK243.06]: the “MHC, minimal hemolytic concentration” value with human red blood cells was found to be 32 µg/mL. Also, the “cytotoxicity (MTT assay)” value in the data set with RAW264.7 cells was “did not demonstrate significant cytotoxicity”. Moreover, the “GM, geometric mean of MICs” value in data set [1] is 2.8 µg/mL. Moreover, the “MIC, E. coli” value in [2] came out at 2 µg/mL. For the same substance, in data set [3], the “MIC, S. dysentariae” value is 8 µg/mL. The “MIC, S. aureus” value in data set [4] came to 2 µg/mL. For the same substance, in data set [5], the “MIC, B. subtilis” value came to 2 µg/mL.
Take LLKWLKKWL-NH2 [WALK243.04]: the “MHC, minimal hemolytic concentration” value in the data set with human red blood cells was determined as 64 µg/mL. Besides, the “cytotoxicity (MTT assay)” value in the data set with RAW264.7 cells is “did not demonstrate significant cytotoxicity”. In addition, the NO inhibitory activity result in data set [6] is listed as “superior NO inhibition compared to other positive controls”. The “GM, geometric mean of MICs” value in data set [1] came out at 4.0 µg/mL. Besides, in data set [7], the “COX-2 and pro-IL-1β expression” value was “less potent or weaker than those of WALK244.04”; the iNOS expression entry was “less potent or weaker than those of WALK244.04”. Besides, the “MIC, E. coli” value in [2] came to 4 µg/mL. In addition, the “MIC, S. dysentariae” value in [3] is 4 µg/mL. Further, the “MIC, S. aureus” value in data set [4] stood at 4 µg/mL. Further, in [5], the “MIC, B. subtilis” value came out at 4 µg/mL.
Consider LLKWLKKWLK-NH2 [WALK244.04], for which the hemolytic activity entry with human red blood cells (at concentrations under 64 μg/mL, human erythrocytes) was “no significant hemolytic activity”. The “MHC, minimal hemolytic concentration” value with human red blood cells is 64 µg/mL. The “NO inhibition at 8 μM” value in [8] (peptide 8 μM) was “near-complete NO inhibition”. The “inhibitory effect against NO production” value in [8] (peptides 8, 4 and 2 μM, pretreatment 5 min, nitrite by Griess) is “dose-dependent inhibitory effect”. Also, the TBK-1 phosphorylation entry in data set [9] (after 1 h of LPS treatment) is recorded as “attenuated”. Besides, in data set [9] (after 4 h of LPS treatment), the STAT-1 phosphorylation entry is “strong inhibition”. In addition, the “cytotoxicity (MTT assay)” value with J774A.1 cells is “no significant cytotoxicity”. Further, the “mRNA expression of IL-1β, IL-6 and TNF-α” value in data set [10] was “effectively suppressed”. Moreover, in data set [6], the NO inhibitory activity entry is recorded as “most potent NO inhibitory activity”. In addition, in data set [1] (against both Gram-positive and Gram-negative bacterial strains, summary), the “MIC values against the strains tested” value was “approximately 4 μg/mL”. The “GM, geometric mean of MICs” value in data set [1] was determined as 4.8 µg/mL. In data set [7], the “COX-2 and pro-IL-1β expression” value is “downregulation”; the iNOS expression result is listed as “substantial downregulation”. For the same substance, the “MIC, E. coli” value in data set [2] amounted to 4 µg/mL. Besides, the “MIC, S. dysentariae” value in [3] was determined as 8 µg/mL. Also, the “MIC, S. aureus” value in [4] turned out to be 4 µg/mL. Moreover, the “MIC, B. subtilis” value in [5] came out at 4 µg/mL.
